According to ChEMBL document CHEMBL1201862, “PubChem BioAssay data set” (2004):
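In this assay, cells in 96-well plates receive the compound at five concentrations for 48 hours. Endpoints are linearly interpolated between the surrounding concentrations. The concentration for 50% growth inhibition is given as GI50.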 Activity calls are given as the source filed them. Rule as the data show it: active = GI50 up to about 1.1 µM and inactive = higher.

How the values were obtained:
Test in all cases: DTP human tumour cell line panel, 48 h
[1] = test system: IGROV-1
[2] = test system: RXF 393
[3] = test system: UACC-62
[4] = test system: MDA-N
[5] = test system: Malme-3M
[6] = test system: UACC-257
[7] = test system: CAKI-1
[8] = test system: HOP-92
[9] = test system: MCF7
[10] = test system: OVCAR-5
[11] = test system: OVCAR-4
[12] = test system: DU-145
[13] = test system: A498
[14] = test system: SF-295
[15] = test system: TK-10
[16] = test system: NCI-H226
[17] = test system: MDA-MB-435
[18] = test system: SNB-19
[19] = test system: OVCAR-3
[20] = test system: SK-MEL-28
[21] = test system: NCI-H23
[22] = test system: Hs-578T
[23] = test system: EKVX
[24] = test system: SNB-75
[25] = test system: COLO 205
[26] = test system: KM12
[27] = test system: OVCAR-8
[28] = test system: LOX IMVI
[29] = test system: RPMI-8226
[30] = test system: 786-0
[31] = test system: SW-620
[32] = test system: SK-MEL-5
[33] = test system: SF-539
[34] = test system: BT-549
[35] = test system: U-251
[36] = test system: HOP-62
[37] = test system: MDA-MB-231
[38] = test system: HCT-15
[39] = test system: PC-3
[40] = test system: ACHN
[41] = test system: HCT-116
[42] = test system: NCI-H460
[43] = test system: HL-60
[44] = test system: K562
[45] = test system: HCC 2998
[46] = test system: M14
[47] = test system: A549
[48] = test system: T47D
[49] = test system: SN12C
[50] = test system: SK-MEL-2
[51] = test system: CCRF-CEM
[52] = test system: NCI/ADR-RES
[53] = test system: SF-268
[54] = test system: SK-OV-3
[55] = test system: UO-31

Compound: CCOC(=O)c1c2ccccc2n2c(=O)n(C)nnc12
- GI50 [1]: > 100 µM (inactive)
- GI50 [2]: > 47.4 µM (inactive)
- GI50 [3]: > 100 µM (inactive)
- GI50 [4]: > 100 µM (inactive)
- GI50 [5]: > 100 µM (inactive)
- GI50 [6]: > 100 µM (inactive)
- GI50 [7]: > 100 µM (inactive)
- GI50 [8]: > 100 µM (inactive)
- GI50 [9]: > 100 µM (inactive)
- GI50 [10]: > 100 µM (inactive)
- GI50 [11]: > 100 µM (inactive)
- GI50 [12]: > 100 µM (inactive)
- GI50 [13]: > 100 µM (inactive)
- GI50 [14]: 40.1 µM (inactive)
- GI50 [15]: > 75.5 µM (inactive)
- GI50 [16]: > 100 µM (inactive)
- GI50 [17]: > 53.7 µM (inactive)
- GI50 [18]: > 100 µM (inactive)
- GI50 [19]: > 27.9 µM (inactive)
- GI50 [20]: > 100 µM (inactive)
- GI50 [21]: > 100 µM (inactive)
- GI50 [22]: > 100 µM (inactive)
- GI50 [23]: 99.8 µM (inactive)
- GI50 [24]: 46.3 µM (inactive)
- GI50 [25]: > 100 µM (inactive)
- GI50 [26]: > 100 µM (inactive)
- GI50 [27]: > 100 µM (inactive)
- GI50 [28]: > 100 µM (inactive)
- GI50 [29]: > 100 µM (inactive)
- GI50 [30]: 89.3 µM (inactive)
- GI50 [31]: > 100 µM (inactive)
- GI50 [32]: > 100 µM (inactive)
- GI50 [33]: > 56.2 µM (inactive)
- GI50 [34]: > 100 µM (inactive)
- GI50 [35]: > 89.1 µM (inactive)
- GI50 [36]: 12.4 µM (inactive)
- GI50 [37]: > 100 µM (inactive)
- GI50 [38]: > 100 µM
- GI50 [39]: > 100 µM (inactive)
- GI50 [40]: > 84.1 µM (inactive)
- GI50 [41]: > 100 µM (inactive)
- GI50 [42]: > 100 µM (inactive)
- GI50 [43]: 1.53 µM (inactive)
- GI50 [44]: > 100 µM (inactive)
- GI50 [45]: > 100 µM (inactive)
- GI50 [46]: > 100 µM (inactive)
- GI50 [47]: > 100 µM (inactive)
- GI50 [48]: > 100 µM (inactive)
- GI50 [49]: > 100 µM (inactive)
- GI50 [50]: > 100 µM (inactive)
- GI50 [51]: > 100 µM (inactive)
- GI50 [52]: > 100 µM (inactive)
- GI50 [53]: 58.9 µM (inactive)
- GI50 [54]: > 80.5 µM (inactive)
- GI50 [55]: > 100 µM (inactive)
